Patent publication US6982330B2, “Carbazole based compound, coloring material, colored high molecular organic material and electroluminescent material” (Dai Nippon Printing Co., LTD, priority 2002, dated 2006)

What was measured:
[1] = Suppressibility of crystallization (film formation ability) of spin-coated layer on glass plate; assay type: physicochemical; conditions: dried at ambient temperature 30 minutes
Procedure: A toluene solution containing 2% by weight of the carbazole based compound of the formula (4) synthesized in Example 1 was prepared. Also, the other toluene solution containing 2% by weight of the same carbazole based compound and 2% by weight of an acrylic binder resin was prepared.
For the comparative examples, the other toluene solution containing 2% by weight of the carbazole (available from Sigma Aldrich Co,.) and the still other toluene solution containing 2% by weight of the carbazole and 2% by weight of the acrylic binder resin were prepared.
2 ml of the each toluene solution was dropped on a non-alkaline glass plate with 5 cm-square shape, and carried out a spin coating at 1,000 rotation per minute for about 2 seconds. Thereafter, it was dried at ambient temperature for 30 minutes, and then a surface of the coating layer was observed and evaluation was carried out regarding suitablility of coating and film-formation process and suppressibility of crystallizing.

[2] = Solubility to solvent (toluene or xylene, 2% by weight, 50° C.); assay type: physicochemical; conditions: added so as to make concentration 2% by weight, stirred at 50° C. for one hour
Procedure: The carbazole based compound of the formula (4) synthesized in Example 1 was added in the toluene or xylene so as to make concentration at 2% by weight, and then stirred in a thermal condition at 50° C. for one hour.

Row | Structure (SMILES) | crystallization of coating layer (visual observation) ([1]; toluene solution containing 2% by weight of compound alone) | crystallization of coating layer (visual observation) ([1]; toluene solution containing 2% by weight of compound and 2% by weight of acrylic binder resin) | solubility in toluene or xylene [2]
1 | c1ccc2c(c1)[nH]c1ccccc12 [carbazole] | crystallized to an extent that findable by visual observation | crystallized to an extent that findable by visual observation | –
2 | c1cc2cccc3c4cccc5cccc(c(c1)c23)c54 [perylene] | – | – | solubility was insufficient
